Source: ChEMBL document CHEMBL1201862, “PubChem BioAssay data set” (2004)
Where “and” joins values, the source holds several entries; their conditions need not be identical. Equal entries are not always repeated. Structures can show the parent of a compound that is named as a salt. Calls of active or inactive are those of the source.

Assays:
[1] = biological target: T1, Zinc finger protein mex-5 (Caenorhabditis elegans, UniProt Q9XUB2); experiment: potency of MEX-5 RNA-binding blockers – biochemical, C. elegans, fluorescence polarization, dose response (AID 1960)
T1 sequence (Q9XUB2 whole entry): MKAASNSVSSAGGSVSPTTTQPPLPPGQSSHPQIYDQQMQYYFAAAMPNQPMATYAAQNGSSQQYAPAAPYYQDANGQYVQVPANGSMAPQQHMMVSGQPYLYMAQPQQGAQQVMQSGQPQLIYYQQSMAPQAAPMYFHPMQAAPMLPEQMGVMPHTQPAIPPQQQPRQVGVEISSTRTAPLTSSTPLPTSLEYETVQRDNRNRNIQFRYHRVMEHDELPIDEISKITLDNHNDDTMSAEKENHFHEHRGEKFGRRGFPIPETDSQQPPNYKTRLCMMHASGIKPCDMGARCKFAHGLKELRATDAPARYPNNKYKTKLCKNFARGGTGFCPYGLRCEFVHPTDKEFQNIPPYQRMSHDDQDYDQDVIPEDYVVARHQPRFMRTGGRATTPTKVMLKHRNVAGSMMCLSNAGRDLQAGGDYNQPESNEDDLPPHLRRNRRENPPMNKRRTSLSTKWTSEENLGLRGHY

[2] = biological target: 5-hydroxytryptamine receptor 1A (Homo sapiens, UniProt P08908); assay type: functional
[3] = biological target: Induced myeloid leukemia cell differentiation protein Mcl-1 (Homo sapiens, UniProt Q07820); experiment: blockers of MCL1 binding to BIM peptide – biochemical, fluorescence polarization, BIM-BH3 peptide, 1536-well, dose response (AID 2217)
Induced myeloid leukemia cell differentiation protein Mcl-1, sequence (Q07820 whole entry): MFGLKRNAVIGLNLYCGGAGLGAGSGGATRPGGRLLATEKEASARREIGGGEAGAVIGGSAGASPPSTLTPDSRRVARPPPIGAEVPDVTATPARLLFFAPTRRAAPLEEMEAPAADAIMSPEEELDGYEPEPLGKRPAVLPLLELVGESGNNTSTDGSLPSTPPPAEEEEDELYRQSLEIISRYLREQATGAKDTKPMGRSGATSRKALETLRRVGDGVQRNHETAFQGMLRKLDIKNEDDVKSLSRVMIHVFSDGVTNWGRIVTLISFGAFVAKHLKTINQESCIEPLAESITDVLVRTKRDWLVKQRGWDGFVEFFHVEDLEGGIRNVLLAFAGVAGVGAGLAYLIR

[4] = biological target: Dual specificity tyrosine-phosphorylation-regulated kinase 1B (Homo sapiens, UniProt Q9Y463); experiment: Navigating the Kinome. Panel member name: DYRK1B; assay type: functional
[5] = biological target: Tyrosine-protein kinase ABL1 (Homo sapiens, UniProt P00519); assay type: functional
[6] = biological target: Tyrosine-protein kinase receptor TYRO3 (Homo sapiens, UniProt Q06418); assay type: functional;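 also: TYRO3 value obtained as one member of a kinome-wide profiling panel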
[7] = biological target: Fibroblast growth factor receptor 3 (Homo sapiens, UniProt P22607); assay type: functional
Fibroblast growth factor receptor 3, sequence (P22607 whole entry): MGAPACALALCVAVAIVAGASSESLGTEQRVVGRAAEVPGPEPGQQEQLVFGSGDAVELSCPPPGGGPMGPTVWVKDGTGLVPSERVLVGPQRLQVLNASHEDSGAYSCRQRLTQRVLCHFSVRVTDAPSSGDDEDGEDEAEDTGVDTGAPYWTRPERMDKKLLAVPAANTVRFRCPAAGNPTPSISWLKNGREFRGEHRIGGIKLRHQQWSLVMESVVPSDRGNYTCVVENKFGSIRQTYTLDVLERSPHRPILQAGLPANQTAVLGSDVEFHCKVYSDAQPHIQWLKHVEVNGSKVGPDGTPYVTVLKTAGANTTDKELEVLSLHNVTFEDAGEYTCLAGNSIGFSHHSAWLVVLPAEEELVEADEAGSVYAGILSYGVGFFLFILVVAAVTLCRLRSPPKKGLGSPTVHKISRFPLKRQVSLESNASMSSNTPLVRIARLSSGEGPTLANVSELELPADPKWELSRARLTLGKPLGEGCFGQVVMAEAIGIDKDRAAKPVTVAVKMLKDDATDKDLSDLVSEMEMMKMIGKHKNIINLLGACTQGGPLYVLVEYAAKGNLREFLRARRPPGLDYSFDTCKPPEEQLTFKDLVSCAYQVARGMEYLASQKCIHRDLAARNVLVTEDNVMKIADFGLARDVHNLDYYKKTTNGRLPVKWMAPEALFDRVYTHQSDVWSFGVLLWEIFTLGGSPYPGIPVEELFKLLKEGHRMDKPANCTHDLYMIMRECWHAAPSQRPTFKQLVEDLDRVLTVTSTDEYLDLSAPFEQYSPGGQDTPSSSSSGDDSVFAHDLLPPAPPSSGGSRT

[8] = biological target: Homeodomain-interacting protein kinase 2 (Homo sapiens, UniProt Q9H2X6); assay type: functional;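 also: measured within a kinome-wide kinase profiling panel, HIPK2 being one panel member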
Homeodomain-interacting protein kinase 2, sequence (Q9H2X6 whole entry): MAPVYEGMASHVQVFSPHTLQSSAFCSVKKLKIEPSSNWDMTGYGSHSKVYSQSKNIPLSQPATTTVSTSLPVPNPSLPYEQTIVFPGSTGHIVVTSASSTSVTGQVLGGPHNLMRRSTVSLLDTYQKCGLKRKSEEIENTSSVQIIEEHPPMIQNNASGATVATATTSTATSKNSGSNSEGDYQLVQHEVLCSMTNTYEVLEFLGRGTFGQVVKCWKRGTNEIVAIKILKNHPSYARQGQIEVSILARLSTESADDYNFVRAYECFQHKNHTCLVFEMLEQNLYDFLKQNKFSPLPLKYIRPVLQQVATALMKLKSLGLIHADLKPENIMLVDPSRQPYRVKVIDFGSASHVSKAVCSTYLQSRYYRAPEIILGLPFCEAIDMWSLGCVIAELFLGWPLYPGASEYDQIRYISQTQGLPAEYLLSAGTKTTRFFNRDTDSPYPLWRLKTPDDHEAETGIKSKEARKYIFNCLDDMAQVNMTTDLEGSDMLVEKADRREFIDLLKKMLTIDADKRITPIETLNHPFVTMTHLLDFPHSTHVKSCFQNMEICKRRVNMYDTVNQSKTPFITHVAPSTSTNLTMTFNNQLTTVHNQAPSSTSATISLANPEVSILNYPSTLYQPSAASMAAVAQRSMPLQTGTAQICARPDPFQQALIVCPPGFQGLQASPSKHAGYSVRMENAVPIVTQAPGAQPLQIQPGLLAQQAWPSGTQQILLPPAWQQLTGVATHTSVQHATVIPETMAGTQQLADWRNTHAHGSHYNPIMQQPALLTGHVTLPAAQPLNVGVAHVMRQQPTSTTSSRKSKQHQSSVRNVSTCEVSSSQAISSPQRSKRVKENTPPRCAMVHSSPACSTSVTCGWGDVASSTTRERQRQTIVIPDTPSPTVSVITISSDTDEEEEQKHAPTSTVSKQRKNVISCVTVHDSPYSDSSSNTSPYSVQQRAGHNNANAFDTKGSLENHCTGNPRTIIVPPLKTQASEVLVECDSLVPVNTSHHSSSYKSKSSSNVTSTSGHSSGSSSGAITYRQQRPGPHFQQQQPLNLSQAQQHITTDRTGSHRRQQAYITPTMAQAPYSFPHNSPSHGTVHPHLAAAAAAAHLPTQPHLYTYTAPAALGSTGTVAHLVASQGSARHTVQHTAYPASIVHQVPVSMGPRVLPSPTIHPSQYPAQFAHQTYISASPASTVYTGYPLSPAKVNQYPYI

[9] = biological target: 3-phosphoinositide-dependent protein kinase 1 (Homo sapiens, UniProt O15530); assay type: functional;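 also: value comes from the Navigating the Kinome panel, PDPK1 member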
3-phosphoinositide-dependent protein kinase 1, sequence (O15530 whole entry): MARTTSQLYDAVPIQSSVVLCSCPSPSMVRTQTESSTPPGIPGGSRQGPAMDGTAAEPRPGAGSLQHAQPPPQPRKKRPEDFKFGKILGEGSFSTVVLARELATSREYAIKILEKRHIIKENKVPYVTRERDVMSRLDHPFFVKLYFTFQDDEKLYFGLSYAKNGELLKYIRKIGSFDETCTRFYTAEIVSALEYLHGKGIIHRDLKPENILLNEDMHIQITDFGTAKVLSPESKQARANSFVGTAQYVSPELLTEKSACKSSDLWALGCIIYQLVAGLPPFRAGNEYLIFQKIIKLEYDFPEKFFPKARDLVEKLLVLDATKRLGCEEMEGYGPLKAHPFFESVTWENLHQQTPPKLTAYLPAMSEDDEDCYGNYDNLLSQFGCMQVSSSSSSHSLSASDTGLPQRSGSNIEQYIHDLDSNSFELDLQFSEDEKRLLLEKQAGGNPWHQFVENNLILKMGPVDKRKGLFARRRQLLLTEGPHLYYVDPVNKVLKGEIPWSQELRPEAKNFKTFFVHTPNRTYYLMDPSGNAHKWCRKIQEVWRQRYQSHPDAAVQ

[10] = biological target: BDNF/NT-3 growth factors receptor (Homo sapiens, UniProt Q16620); assay type: functional;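 also: NTRK2 measured as one member of a broad kinome-wide kinase profiling panel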
[11] = biological target: Glycogen synthase kinase-3 alpha (Homo sapiens, UniProt P49840); assay type: functional;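 also: GSK3A result taken from a broad kinome-wide kinase panel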
[12] = biological target: Serine/threonine-protein kinase MRCK alpha (Homo sapiens, UniProt Q5VT25); assay type: functional
[13] = biological target: Mitogen-activated protein kinase kinase kinase kinase 2 (Homo sapiens, UniProt Q12851); assay type: functional;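 also: measured as one member of a kinome-wide kinase panel, with MAP4K2 as the panel entry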
[14] = biological target: Lymphokine-activated killer T-cell-originated protein kinase (Homo sapiens, UniProt Q96KB5); assay type: functional;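 also: value comes from a kinase panel screen in which TOPK was one of the panel members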
Lymphokine-activated killer T-cell-originated protein kinase, sequence (Q96KB5 whole entry): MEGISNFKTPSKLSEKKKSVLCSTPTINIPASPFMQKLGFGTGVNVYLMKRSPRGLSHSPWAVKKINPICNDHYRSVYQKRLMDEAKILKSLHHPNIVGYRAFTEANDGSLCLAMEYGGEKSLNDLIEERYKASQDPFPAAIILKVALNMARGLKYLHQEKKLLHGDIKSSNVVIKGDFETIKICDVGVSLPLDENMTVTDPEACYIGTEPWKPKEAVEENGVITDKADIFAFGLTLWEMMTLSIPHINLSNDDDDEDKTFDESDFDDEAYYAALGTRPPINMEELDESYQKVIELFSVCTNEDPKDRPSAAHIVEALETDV

[15] = biological target: Leukocyte tyrosine kinase receptor (Homo sapiens, UniProt P29376); experiment: Navigating the Kinome. Panel member name: LTK; assay type: functional
Leukocyte tyrosine kinase receptor, sequence (P29376 whole entry): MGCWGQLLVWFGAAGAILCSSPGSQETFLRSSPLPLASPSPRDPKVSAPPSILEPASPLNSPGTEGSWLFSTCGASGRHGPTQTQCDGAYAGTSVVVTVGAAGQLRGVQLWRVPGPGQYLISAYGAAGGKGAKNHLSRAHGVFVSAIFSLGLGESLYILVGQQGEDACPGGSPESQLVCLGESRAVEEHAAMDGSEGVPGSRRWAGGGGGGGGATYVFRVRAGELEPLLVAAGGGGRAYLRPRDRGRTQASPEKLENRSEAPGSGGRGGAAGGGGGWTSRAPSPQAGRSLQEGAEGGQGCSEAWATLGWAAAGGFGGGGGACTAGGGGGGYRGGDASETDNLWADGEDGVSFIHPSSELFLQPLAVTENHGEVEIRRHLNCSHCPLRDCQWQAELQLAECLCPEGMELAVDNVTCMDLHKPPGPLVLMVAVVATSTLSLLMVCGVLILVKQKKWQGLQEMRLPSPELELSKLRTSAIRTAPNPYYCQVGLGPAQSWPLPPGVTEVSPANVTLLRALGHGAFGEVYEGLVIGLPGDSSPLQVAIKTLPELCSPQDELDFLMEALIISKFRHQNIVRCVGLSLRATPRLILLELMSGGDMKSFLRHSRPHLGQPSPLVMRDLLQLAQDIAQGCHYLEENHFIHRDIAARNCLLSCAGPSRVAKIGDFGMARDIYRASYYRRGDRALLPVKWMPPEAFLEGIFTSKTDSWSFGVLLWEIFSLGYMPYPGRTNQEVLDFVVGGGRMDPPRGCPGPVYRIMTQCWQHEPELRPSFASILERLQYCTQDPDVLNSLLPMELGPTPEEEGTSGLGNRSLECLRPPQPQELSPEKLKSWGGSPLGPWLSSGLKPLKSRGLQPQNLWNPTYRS

[16] = biological target: Serine/threonine-protein kinase pim-1 (Homo sapiens, UniProt P11309); assay type: functional
Serine/threonine-protein kinase pim-1, sequence (P11309 whole entry): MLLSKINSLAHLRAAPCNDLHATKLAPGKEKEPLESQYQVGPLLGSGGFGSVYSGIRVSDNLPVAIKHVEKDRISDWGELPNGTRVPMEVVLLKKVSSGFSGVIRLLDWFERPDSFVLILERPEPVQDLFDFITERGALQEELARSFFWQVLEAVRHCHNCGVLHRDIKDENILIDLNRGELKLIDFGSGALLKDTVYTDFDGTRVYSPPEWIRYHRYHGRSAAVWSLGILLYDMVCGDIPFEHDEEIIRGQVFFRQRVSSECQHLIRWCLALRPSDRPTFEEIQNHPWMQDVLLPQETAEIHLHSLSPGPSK

[17] = biological target: cGMP-dependent protein kinase 1 (Homo sapiens, UniProt Q13976); assay type: functional;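 also: value from a kinome panel screen with PRKG1 as the panel member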
[18] = biological target: ALK tyrosine kinase receptor (Homo sapiens, UniProt Q9UM73); assay type: functional;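 also: ALK tested as one member of a kinase panel screen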
[19] = biological target: Interleukin-1 receptor-associated kinase 1 (Homo sapiens, UniProt P51617); assay type: functional;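 also: IRAK1 tested as one member of a kinome panel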
[20] = biological target: Tyrosine-protein kinase Srms (Homo sapiens, UniProt Q9H3Y6); assay type: functional;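 also: SRMS measured as one member of a kinome-wide kinase profiling panel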
[21] = biological target: Serine/threonine-protein kinase PAK 4 (Homo sapiens, UniProt O96013); assay type: functional;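 also: value obtained within a kinome profiling panel in which PAK4 was one of the panel members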
Serine/threonine-protein kinase PAK 4, sequence (O96013 whole entry): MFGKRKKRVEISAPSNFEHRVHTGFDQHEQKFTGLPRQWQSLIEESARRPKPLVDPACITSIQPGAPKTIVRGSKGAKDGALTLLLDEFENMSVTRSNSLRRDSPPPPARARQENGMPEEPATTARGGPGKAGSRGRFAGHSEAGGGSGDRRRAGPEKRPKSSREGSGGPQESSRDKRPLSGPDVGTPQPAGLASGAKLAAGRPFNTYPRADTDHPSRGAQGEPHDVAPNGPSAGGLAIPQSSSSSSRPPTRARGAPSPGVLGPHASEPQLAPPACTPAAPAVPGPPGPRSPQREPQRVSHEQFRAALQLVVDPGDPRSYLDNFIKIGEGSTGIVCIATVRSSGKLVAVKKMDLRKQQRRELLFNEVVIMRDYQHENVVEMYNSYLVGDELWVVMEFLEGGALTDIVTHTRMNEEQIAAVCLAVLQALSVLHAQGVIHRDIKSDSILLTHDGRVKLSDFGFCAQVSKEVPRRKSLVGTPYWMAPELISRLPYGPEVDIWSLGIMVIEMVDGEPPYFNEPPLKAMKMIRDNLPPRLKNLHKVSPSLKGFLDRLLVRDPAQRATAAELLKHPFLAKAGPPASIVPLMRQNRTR

[22] = biological target: Vascular endothelial growth factor receptor 1 (Homo sapiens, UniProt P17948); assay type: functional;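 also: measured within a kinome-wide profiling panel, FLT1 as the panel member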
[23] = biological target: Dual specificity tyrosine-phosphorylation-regulated kinase 1A (Homo sapiens, UniProt Q13627); assay type: functional;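 also: measured against DYRK1A as one member of a broad kinome profiling panel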
[24] = M. tuberculosis H37Rv growth inhibitors, H37Rv strain (AID 1626); assay type: functional
INS1 = experiment: INS-1E survival protection against cytokine death – cell-based, luminescence, retest, dose response (AID 449756); assay type: functional; conditions: Rattus norvegicus;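 also: cell death triggered by IL-1 beta plus TNF-alpha plus IFN-gamma mixture; protective hits raise ATP signal compared with cytokine alone wells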

In the case of `CC[C@@H](CO)NC(=O)[C@@H]1C=C2c3cccc4c3c(cn4C)C[C@H]2N(C)C1` [METHYSERGIDE MALEATE], the EC50 [1] is reported as 12.3 µM (active) and 20 µM (inconclusive), the EC50 [2] is reported as 1.07 µM (active) and the IC50 [3] is reported as 20.4 µM (not active).

For `CN1CCN(c2nc(C3=C(c4c[nH]c5ccccc45)C(=O)NC3=O)c3ccccc3n2)CC1` [SOTRASTAURIN], the Ki [4] was > 2.51 µM (inactive), the Ki [5] was > 1.58 µM (inactive) and the Ki [6] was > 2.51 µM (inactive). For the same compound, the Ki [7] was > 2 µM (inactive), the Ki [8] was > 3.16 µM (inactive) and the Ki [9] was 1.58 µM (active). For the same compound, the Ki [10] was > 3.98 µM (inactive), the Ki [11] was 158 nM (active) and the Ki [12] was > 10 µM (inactive). The Ki [13] was > 5.01 µM (inactive), the Ki [14] was > 10 µM (inactive) and the Ki [15] was 2.51 µM (active). For the same compound, the Ki [16] was 158 nM (active), the Ki [17] was 794 nM (active) and the Ki [18] was > 1.58 µM (inactive). For the same compound, the Ki [19] was > 7.94 µM (inactive), the Ki [20] was > 1.58 µM (inactive) and the Ki [21] was > 5.01 µM (inactive). For the same compound, the Ki [22] was > 2 µM (inactive) and the Ki [23] was > 3.98 µM (inactive).

With `O=C(CCl)Oc1ccc2occ(C(=O)c3cccs3)c2c1` the IC50 [24] was > 100 µM (active).

With `CCCCCCCCCCOC(=O)C[n+]1c(COc2ccc(C)cc2)n(C)c2ccccc21` the AC50 (INS1) was 3.4 µM (active).
